In patent US12558428B2, “Heterobifunctional compounds and their use in treating disease” (Halda Therapeutics OpCo, Inc., priority 2024, dated 2026):
Like-named read-outs stand apart in the source and are kept apart here.

Legend:
Format in all cases: cell-based
[1] = tested on: T-Rex 293 cells having increased expression of estrogen receptor alpha protein; assay: Cellular growth inhibition assay, T-Rex 293 cells, (+) doxycycline; conditions: T-REx-293, 72 h, 72 hours
How it was run: (§1)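 ERα overexpression was switched on by 3 ng/mL doxycycline in a stably transfected T-Rex 293 clone, while uninduced cells served as the comparison line. Proliferation over 72 h of compound treatment was assessed by ATP luminescence, and GI50 values came from four-parameter curves.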

[2] = tested on: T-Rex 293 cells lacking increased expression of estrogen receptor alpha protein; assay: Cellular growth inhibition assay, T-Rex 293 cells, (−) doxycycline; conditions: T-REx-293, 72 h, 72 hours
How it was run: as §1

[3] = tested on: MCF7 cells (ATCC #HTB-22); assay: Cellular growth inhibition assay, MCF7 cells purchased from ATCC; conditions: Homo sapiens, MCF7, 144 h, Table 8-A; MCF7 cells purchased from ATCC; six days; CellTiter-Glo; read-out: GI50
How it was run: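 MCF7 cells in RPMI 1640 with 10% FBS and 0.2 U/ml insulin, seeded at 1,500 cells/well (ATCC) or 225 cells/well (ECACC). Compounds added 24 h later, then 6 days at 37° C. Viability by CellTiter-Glo 2.0 luminescence. GI50 from four-parameter fit.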

[4] = Table 7-A, T-Rex 293 cells with doxycycline (increased ERα expression), CellTiter-Glo, read-out: (+) Dox GI50
[5] = Table 7-A, T-Rex 293 cells without doxycycline (lacking increased ERα expression), CellTiter-Glo, read-out: (−) Dox GI50
[6] = T-Rex 293 cells with doxycycline-induced ERα expression, CellTiter-Glo 2.0, read-out: (+) Dox TRex ERa (GI50)
[7] = T-Rex 293 cells without doxycycline, CellTiter-Glo 2.0, read-out: (−) Dox TRex ERa (GI50)

Structure (SMILES)	GI50 [3]	GI50 [1, 4]	GI50 [2, 5]	GI50 [1, 6]	GI50 [2, 7]	GI50 ([1]; Table 7-B, T-Rex 293 cells with doxycycline (increased ERα expression), CellTiter-Glo, read-out: (+) Dox GI50)	GI50 ([2]; Table 7-B, T-Rex 293 cells without doxycycline (lacking increased ERα expression), CellTiter-Glo, read-out: (−) Dox GI50)
Cc1sc2c(c1C)C(c1ccc(N[C@H]3CCCCN(CCOc4ccc([C@@H]5c6ccc(O)cc6CC[C@@H]5c5ccccc5)cc4)C3)cc1)=NC(Cc1ncco1)c1nnc(C)n1-2 (stereo partly drawn) [III-47]	50 to 500 nM	50 to 500 nM	50 to 500 nM	–	–	–	–
Cc1sc2c(c1C)C(c1ccc(OCCCCC3CCN(c4ccc(C(=O)c5c(-c6ccc(O)cc6)sc6cc(O)ccc56)cc4)CC3)cc1)=N[C@@H](Cc1ncco1)c1nnc(C)n1-2 [I-21, (S)-(6-hydroxy-2-(4-hydroxyphenyl)benzo[b]thiophen-3-yl)(4-(4-(4-(4-(2,3,9-trimethyl-6-(oxazol-2-ylmethyl)-6H-thieno[3,2-f][1,2,4]triazolo[4,3-a][1,4]diazepin-4-yl)phenoxy)butyl)piperidin-1-yl)phenyl)methanone]	< 50 nM	–	–	< 50 nM	50 to 500 nM	–	–
CC1=C(c2c(F)cc(OCCOCCOc3ccc(C4=N[C@@H](C)c5nnc(C)n5-c5sc(C)c(C)c54)cc3)cc2F)C(c2ccccc2)Oc2ccc(O)cc21 (single isomer, unassigned) [I-39]	50 to 500 nM	–	–	50 to 500 nM	500 to 2500 nM	–	–
CC1=C(c2ccc(O)cc2)[C@H](c2ccc(OCCN3CC[C@@H](OCCOCCOc4ccc(C5=N[C@@H](C)c6nnc(C)n6-c6sc(C)c(C)c65)cc4)C3)cc2)Oc2cc(O)ccc21 [I-60]	50 to 500 nM	50 to 500 nM	500 to 2500 nM	–	–	–	–
Cc1sc2c(c1C)C(c1ccc(C3CN(CCN4CC(COc5ccc([C@@H]6c7ccc(O)cc7CC[C@@H]6c6ccccc6)cc5)C4)C3)cc1)=N[C@@H](C)c1nnc(C)n1-2 [III-95]	< 50 nM	< 50 nM	50 to 500 nM	–	–	–	–
Cc1sc2c(c1C)C(c1ccc(N3CCC(O)(CN4CCN(c5ccc([C@H]6c7ccc(O)cc7CC[C@H]6c6ccc(F)cc6)cc5)CC4)CC3)cc1)=N[C@H](Cc1ncco1)c1nnc(C)n1-2 [III-207]	500 to 2500 nM	> 2500 nM	> 2500 nM	–	–	–	–
Cc1sc2c(c1C)C(c1ccc(N3C[C@@H]4C(NCCOc5ccc([C@H]6c7ccc(O)cc7CC[C@H]6c6ccccc6)cc5)[C@H]4C3)cc1)=NC(Cc1ncco1)c1nnc(C)n1-2 (stereo partly drawn) [III-347]	< 50 nM	–	–	–	–	< 50 nM	< 50 nM
Cc1sc2c(c1C)C(c1ccc(N3CCC(O)(CN4CCN(c5ccc([C@@H]6c7ccc(O)cc7CC[C@@H]6c6ccc(F)cc6)cc5)CC4)CC3)cc1)=N[C@@H](Cc1ncco1)c1nnc(C)n1-2 [III-210]	< 50 nM	< 50 nM	50 to 500 nM	–	–	–	–
Cc1sc2c(c1C)C(c1ccc(N3CCC(CN4CC(COc5ccc([C@H]6c7ccc(O)cc7CC[C@H]6c6ccccc6)cc5)C4)CC3)cc1)=N[C@@H](Cc1ncco1)c1nnc(C)n1-2 [III-92]	50 to 500 nM	50 to 500 nM	50 to 500 nM	–	–	–	–
CC1=C(c2c(F)cc(F)cc2F)[C@@H](c2ccc(N3CCN(C(=O)C4CCN(c5ccc(C6=N[C@@H](C)c7nnc(C)n7-c7sc(C)c(C)c76)cc5)CC4)CC3)cc2)Oc2ccc(O)cc21 [V-14]	50 to 500 nM	50 to 500 nM	500 to 2500 nM	–	–	–	–
Cc1sc2c(c1C)C(c1ccc(N3CCC(CC4(O)CCN(c5ccc([C@@H]6c7ccc(O)cc7CC[C@@H]6c6ccccc6)cc5)CC4)CC3)cc1)=N[C@@H](Cc1ncco1)c1nnc(C)n1-2 [III-164]	< 50 nM	< 50 nM	50 to 500 nM	–	–	–	–
Cc1sc2c(c1C)C(c1ccc(NC[C@H]3CC[C@H](CNCCOc4ccc([C@@H]5c6ccc(O)cc6CC[C@@H]5c5ccccc5)cc4)CC3)cc1)=NC(Cc1ncco1)c1nnc(C)n1-2 (stereo partly drawn) [III-49]	< 50 nM	< 50 nM	50 to 500 nM	–	–	–	–
Cc1sc2c(c1C)C(c1ccc(N3CC4(CCC(CN5CCC(c6ccc([C@@H]7c8ccc(O)cc8CC[C@@H]7c7ccc(F)cc7)cc6)CC5)CC4)C3)cc1)=N[C@@H](C)c1nnc(C)n1-2 [III-253]	< 50 nM	< 50 nM	500 to 2500 nM	–	–	–	–
Cc1sc2c(c1C)C(c1ccc(NCCN3CCN(CCOc4ccc([C@@H]5c6ccc(O)cc6CC[C@@H]5c5ccccc5)cc4)CC3)cc1)=NC(Cc1ncco1)c1nnc(C)n1-2 (stereo partly drawn) [III-29]	50 to 500 nM	< 50 nM	50 to 500 nM	–	–	–	–
Cc1sc2c(c1C)C(c1ccc(OCCOCCOCCOc3cc(F)c([C@@H]4c5[nH]c6ccccc6c5C[C@@H](C)N4CC(C)(C)F)c(F)c3)cc1)=N[C@@H](C)c1nnc(C)n1-2 [I-25, (S)-4-(4-(2-(2-(2-(3,5-difluoro-4-((1R,3R)-2-(2-fluoro-2-methylpropyl)-3-methyl-2,3,4,9-tetrahydro-1H-pyrido[3,4-b]indol-1-yl)phenoxy)ethoxy)ethoxy)ethoxy)phenyl)-2,3,6,9-tetramethyl-6H-thieno[3,2-f][1,2,4]triazolo[4,3-a][1,4]diazepine]	< 50 nM	–	–	50 to 500 nM	50 to 500 nM	–	–

Second part, led by results:

GI50 [3]	Structure (SMILES)	GI50 [1, 4]	GI50 [2, 5]	GI50 [1, 6]	GI50 [2, 7]	GI50 ([1]; Table 7-B, T-Rex 293 cells with doxycycline (increased ERα expression), CellTiter-Glo, read-out: (+) Dox GI50)	GI50 ([2]; Table 7-B, T-Rex 293 cells without doxycycline (lacking increased ERα expression), CellTiter-Glo, read-out: (−) Dox GI50)
50 to 500 nM	Cc1sc2c(c1C)C(c1ccc(N3CC(CN4CC(COc5ccc([C@@H]6c7ccc(O)cc7CC[C@@H]6c6ccccc6)cc5)C4)C3)cc1)=N[C@@H](C)c1nnc(C)n1-2 [III-101]	< 50 nM	50 to 500 nM	–	–	–	–
< 50 nM	Cc1sc2c(c1C)C(c1ccc(N3CC(CC4(O)CCN(CC5CN(c6ccc(C7=C(c8ccccc8)CCCc8cc(C(=O)O)ccc87)cc6)C5)CC4)C3)cc1)=N[C@@H](C)c1nnc(C)n1-2 [IV-29]	< 50 nM	50 to 500 nM	–	–	–	–
< 50 nM	Cc1sc2c(c1C)C(c1ccc(N3CCC(O)(CN4CCN(c5ccc(C6=C(c7ccccc7)CCCc7cc(O)ccc76)cc5)CC4)CC3)cc1)=N[C@@H](C)c1nnc(C)n1-2 [IV-17]	< 50 nM	500 to 2500 nM	–	–	–	–
< 50 nM	Cc1sc2c(c1C)C(c1ccc(N3CC(CN4CC(CC5CN(c6ccc(C7=C(c8ccccc8)CCCc8cc(C(=O)O)ccc87)cc6)C5)C4)C3)cc1)=N[C@@H](C)c1nnc(C)n1-2 [IV-36]	< 50 nM	50 to 500 nM	–	–	–	–
< 50 nM	CC1=C(c2c(F)cc(F)cc2F)C(c2ccc(N3CCN(CC4(O)CCN(c5ccc(C6=N[C@@H](C)c7nnc(C)n7-c7sc(C)c(C)c76)cc5)CC4)CC3)cc2)Oc2ccc(O)cc21 (stereo partly drawn) [V-28]	< 50 nM	50 to 500 nM	–	–	–	–
> 2500 nM	Cc1sc2c(c1C)C(c1ccc(N3CCN(CCC4CN(c5ccc([C@@H]6c7ccc(O)cc7CC[C@@H]6c6ccccc6)cc5)C4)CC3)cc1)=N[C@@H](C)c1nnc(C)n1-2 [III-80]	50 to 500 nM	500 to 2500 nM	–	–	–	–
< 50 nM	Cc1sc2c(c1C)C(c1ccc(N3CCC(O)(CN4CCN(c5ccc(C6=C(c7ccc(Cl)cc7)CCCc7cc(C(=O)O)ccc76)cc5)CC4)CC3)cc1)=N[C@@H](C)c1nnc(C)n1-2 [IV-57]	< 50 nM	500 to 2500 nM	–	–	–	–
< 50 nM	Cc1sc2c(c1C)C(c1ccc(N3CC(O)(CN4CCN(CC5CN(c6ccc(C7=C(c8ccccc8)CCCc8cc(C(=O)O)ccc87)cc6)C5)CC4)C3)cc1)=N[C@@H](C)c1nnc(C)n1-2 [IV-45]	< 50 nM	< 50 nM	–	–	–	–
< 50 nM	Cc1sc2c(c1C)C(c1ccc(N3CCC(O)(CN4CCN(c5cc(F)c([C@@H]6c7ccc(O)cc7CC[C@@H]6c6ccc(F)cc6)cc5F)CC4)CC3)cc1)=N[C@@H](C)c1nnc(C)n1-2 [III-256]	< 50 nM	500 to 2500 nM	–	–	–	–
< 50 nM	Cc1sc2c(c1C)C(c1ccc(N3CCC4(CC3)CN(CC3CCN(c5ccc([C@@H]6c7ccc(O)cc7CC[C@@H]6c6ccccc6)cc5)CC3)C4)cc1)=N[C@@H](C)c1nnc(C)n1-2 [III-88]	< 50 nM	50 to 500 nM	–	–	–	–
50 to 500 nM	Cc1cc([C@@H]2c3ccc(O)cc3CC[C@@H]2c2ccccc2)c(F)cc1N1CCN(CC2(O)CCN(c3ccc(C4=N[C@@H](C)c5nnc(C)n5-c5sc(C)c(C)c54)cc3)CC2)CC1 [III-287]	< 50 nM	500 to 2500 nM	–	–	–	–
< 50 nM	Cc1sc2c(c1C)C(c1ccc(N3CCC(O)(CN4CCN(c5ccc(C6=C(c7cccc(Cl)c7)CCCc7cc(C(=O)O)ccc76)cc5)CC4)CC3)cc1)=N[C@@H](C)c1nnc(C)n1-2 [IV-51]	< 50 nM	500 to 2500 nM	–	–	–	–
< 50 nM	Cc1sc2c(c1C)C(c1ccc(N3CCC(O)(CN4CCN(c5ccc([C@@H]6c7ccc(C(=O)O)cc7CC[C@@H]6c6ccc(F)cc6F)cc5)CC4)CC3)cc1)=NC(Cc1ncco1)c1nnc(C)n1-2 (stereo partly drawn) [III-214]	< 50 nM	50 to 500 nM	–	–	–	–
< 50 nM	Cc1sc2c(c1C)C(c1ccc(N3CCC(O)(CN4CCN(c5ccc([C@@H]6c7ccc(O)cc7CC[C@@H]6c6cccc(F)c6F)c(F)c5)CC4)CC3)cc1)=N[C@@H](C)c1nnc(C)n1-2 [III-272]	< 50 nM	500 to 2500 nM	–	–	–	–
50 to 500 nM	Cc1sc2c(c1C)C(c1ccc(N3CCC(CN4CC(COc5ccc([C@@H]6c7ccc(O)cc7CC[C@@H]6c6ccccc6)cc5)C4)CC3)cc1)=N[C@@H](C)c1nnc(C)n1-2 [III-10]	< 50 nM	50 to 500 nM	–	–	–	–
